Laboratory results reported in the supplement of paper PMC10307832.

Assays:
Test in all cases: relative viability (nuclei count vs DMSO), 5 days (fraction); higher = more cells survive
[1] = system: PC-3 [JPC-3]
Method in brief: (§1)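 Values are medians from duplicate plates. Each reflects relative viability, defined as the nuclei count of treated wells over that of vehicle wells. Lung cancer cell lines in 1536-well plates were pin-tool dosed one day after seeding with one drug alone or with a fixed anchor-drug dose plus five library-drug doses (not always all listed) in √10 steps, then fixed, stained and imaged at 4× after 5 days.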

[2] = system: NCI-H650
Method in brief: as §1

[3] = system: A-427
Method in brief: as §1

[4] = system: PC-14
Method in brief: as §1

[5] = system: NCI-H727
Method in brief: as §1

[6] = system: NCI-H460
Method in brief: as §1

[7] = system: NCI-H1793
Method in brief: as §1

[8] = system: H3255
Method in brief: as §1

[9] = system: COR-L23
Method in brief: as §1

[10] = system: SW 1573
Method in brief: as §1

[11] = system: NCI-H1563
Method in brief: as §1

[12] = system: NCI-H23
Method in brief: as §1

[13] = system: NCI-H838
Method in brief: as §1

[14] = system: LK-2
Method in brief: as §1

[15] = system: SW 900
Method in brief: as §1

[16] = system: LCLC-103H
Method in brief: as §1

[17] = system: HCC-44
Method in brief: as §1

[18] = system: 201T
Method in brief: as §1

[19] = system: NCI-H1944
Method in brief: as §1

[20] = system: LU99A
Method in brief: as §1

[21] = system: NCI-H2347
Method in brief: as §1

[22] = system: LCLC-97TM1
Method in brief: as §1

[23] = system: NCI-H1650
Method in brief: as §1

`CC1(C)CCC(c2ccc(Cl)cc2)=C(CN2CCN(c3ccc(C(=O)NS(=O)(=O)c4ccc(N[C@H](CCN5CCOCC5)CSc5ccccc5)c(S(=O)(=O)C(F)(F)F)c4)cc3)CC2)C1` [Navitoclax] + N=C(N)NC(=N)NCCc1ccccc1 [Phenformin] (partner 250 µM) showed a relative viability ([1]; first compound 0.005 µM) of 0.466, a relative viability ([1]; first compound 0.01581 µM) of 0.48 and a relative viability ([1]; first compound 0.05 µM) of 0.516. It also gave a relative viability ([1]; first compound 0.1581 µM) of 0.453, a relative viability ([1]; first compound 0.5 µM) of 0.41 and a relative viability ([2]; first compound 0.005 µM) of 0.447. It also gave a relative viability ([2]; first compound 0.01581 µM) of 0.473, a relative viability ([2]; first compound 0.05 µM) of 0.456 and a relative viability ([2]; first compound 0.1581 µM) of 0.456. It also gave a relative viability ([2]; first compound 0.5 µM) of 0.504, a relative viability ([3]; first compound 0.005 µM) of 0.342 and a relative viability ([3]; first compound 0.01581 µM) of 0.359. For the same molecule, the relative viability ([3]; first compound 0.05 µM) was 0.179, the relative viability ([3]; first compound 0.1581 µM) was 0.287 and the relative viability ([3]; first compound 0.5 µM) was 0.273. For the same molecule, the relative viability ([4]; first compound 0.005 µM) was 0.611, the relative viability ([4]; first compound 0.01581 µM) was 0.598 and the relative viability ([4]; first compound 0.05 µM) was 0.57. It also gave a relative viability ([4]; first compound 0.1581 µM) of 0.541, a relative viability ([4]; first compound 0.5 µM) of 0.616 and a relative viability ([5]; first compound 0.01581 µM) of 0.804. It also gave a relative viability ([5]; first compound 0.1581 µM) of 0.479, a relative viability ([5]; first compound 0.5 µM) of 0.394 and a relative viability ([6]; first compound 0.005 µM) of 0.509. For the same molecule, the relative viability ([6]; first compound 0.01581 µM) was 0.512, the relative viability ([6]; first compound 0.05 µM) was 0.529 and the relative viability ([6]; first compound 0.1581 µM) was 0.522. It also gave a relative viability ([6]; first compound 0.5 µM) of 0.515, a relative viability ([7]; first compound 0.005 µM) of 0.527 and a relative viability ([7]; first compound 0.01581 µM) of 0.445. The relative viability ([7]; first compound 0.1581 µM) was 0.309, the relative viability ([7]; first compound 0.5 µM) was 0.313 and the relative viability ([8]; first compound 0.005 µM) was 0.338. The relative viability ([8]; first compound 0.01581 µM) was 0.399, the relative viability ([8]; first compound 0.05 µM) was 0.376 and the relative viability ([8]; first compound 0.1581 µM) was 0.39. It also gave a relative viability ([8]; first compound 0.5 µM) of 0.339, a relative viability ([9]; first compound 0.005 µM) of 0.409 and a relative viability ([9]; first compound 0.01581 µM) of 0.494. It also gave a relative viability ([9]; first compound 0.05 µM) of 0.516, a relative viability ([9]; first compound 0.1581 µM) of 0.438 and a relative viability ([9]; first compound 0.5 µM) of 0.447. For the same molecule, the relative viability ([10]; first compound 0.005 µM) was 0.437, the relative viability ([10]; first compound 0.01581 µM) was 0.503 and the relative viability ([10]; first compound 0.05 µM) was 0.358. It also gave a relative viability ([10]; first compound 0.1581 µM) of 0.414, a relative viability ([10]; first compound 0.5 µM) of 0.406 and a relative viability ([11]; first compound 0.005 µM) of 0.685. For the same molecule, the relative viability ([11]; first compound 0.01581 µM) was 0.723, the relative viability ([11]; first compound 0.05 µM) was 0.611 and the relative viability ([11]; first compound 0.1581 µM) was 0.682. The relative viability ([11]; first compound 0.5 µM) was 0.665, the relative viability ([12]; first compound 0.005 µM) was 0.759 and the relative viability ([12]; first compound 0.01581 µM) was 0.818. It also gave a relative viability ([12]; first compound 0.05 µM) of 0.662, a relative viability ([12]; first compound 0.1581 µM) of 0.783 and a relative viability ([12]; first compound 0.5 µM) of 0.799. For the same molecule, the relative viability ([13]; first compound 0.005 µM) was 0.529, the relative viability ([13]; first compound 0.01581 µM) was 0.735 and the relative viability ([13]; first compound 0.05 µM) was 0.757. The relative viability ([13]; first compound 0.1581 µM) was 0.749, the relative viability ([13]; first compound 0.5 µM) was 0.664 and the relative viability ([14]; first compound 0.005 µM) was 0.417. For the same molecule, the relative viability ([14]; first compound 0.01581 µM) was 0.551, the relative viability ([14]; first compound 0.05 µM) was 0.379 and the relative viability ([14]; first compound 0.1581 µM) was 0.353. The relative viability ([14]; first compound 0.5 µM) was 0.395, the relative viability ([15]; first compound 0.005 µM) was 0.484 and the relative viability ([15]; first compound 0.01581 µM) was 0.638. For the same molecule, the relative viability ([15]; first compound 0.05 µM) was 0.586, the relative viability ([15]; first compound 0.1581 µM) was 0.556 and the relative viability ([15]; first compound 0.5 µM) was 0.41. It also gave a relative viability ([16]; first compound 0.005 µM) of 0.342, a relative viability ([16]; first compound 0.01581 µM) of 0.359 and a relative viability ([16]; first compound 0.05 µM) of 0.314. For the same molecule, the relative viability ([16]; first compound 0.1581 µM) was 0.322, the relative viability ([16]; first compound 0.5 µM) was 0.338 and the relative viability ([17]; first compound 0.005 µM) was 0.173. The relative viability ([17]; first compound 0.01581 µM) was 0.184, the relative viability ([17]; first compound 0.05 µM) was 0.185 and the relative viability ([17]; first compound 0.1581 µM) was 0.131. For the same molecule, the relative viability ([17]; first compound 0.5 µM) was 0.197, the relative viability ([18]; first compound 0.005 µM) was 0.447 and the relative viability ([18]; first compound 0.01581 µM) was 0.458. For the same molecule, the relative viability ([18]; first compound 0.05 µM) was 0.456, the relative viability ([18]; first compound 0.1581 µM) was 0.438 and the relative viability ([18]; first compound 0.5 µM) was 0.492. It also gave a relative viability ([19]; first compound 0.005 µM) of 0.183, a relative viability ([19]; first compound 0.01581 µM) of 0.191 and a relative viability ([19]; first compound 0.05 µM) of 0.182. The relative viability ([19]; first compound 0.1581 µM) was 0.211, the relative viability ([19]; first compound 0.5 µM) was 0.146 and the relative viability ([20]; first compound 0.005 µM) was 0.878. The relative viability ([20]; first compound 0.01581 µM) was 0.993, the relative viability ([20]; first compound 0.05 µM) was 0.726 and the relative viability ([20]; first compound 0.1581 µM) was 0.829. It also gave a relative viability ([20]; first compound 0.5 µM) of 0.928, a relative viability ([21]; first compound 0.005 µM) of 0.452 and a relative viability ([21]; first compound 0.01581 µM) of 0.567. The relative viability ([21]; first compound 0.1581 µM) was 0.321, the relative viability ([21]; first compound 0.5 µM) was 0.482 and the relative viability ([22]; first compound 0.005 µM) was 0.447. It also gave a relative viability ([22]; first compound 0.01581 µM) of 0.504, a relative viability ([22]; first compound 0.05 µM) of 0.403 and a relative viability ([22]; first compound 0.1581 µM) of 0.477. It also gave a relative viability ([22]; first compound 0.5 µM) of 0.507, a relative viability ([23]; first compound 0.005 µM) of 0.358 and a relative viability ([23]; first compound 0.01581 µM) of 0.606. The relative viability ([23]; first compound 0.05 µM) was 0.404, the relative viability ([23]; first compound 0.1581 µM) was 0.36 and the relative viability ([23]; first compound 0.5 µM) was 0.313.
